# Measured values reported in US6664086B2, “cDNA, genomic, and predicted protein sequences of learning-induced kinases” (priority 1998, dated 2003).
# “Also recorded” adds a separate entry of the source. Starred links: 1 amine or outer side, 2 acyl side, 3 side chain; linkers in the order of their positions; H or OH if unused. Positions of bridges follow the written chain, without caps; N, C: chain ends. Non-standard residues stand in square brackets, D forms with d. Residues, ends and D or L forms follow the SMILES beside them. Chains are numbered I, II in the order given. Actinocin(9to1) = Cc1c2oc3c(C)ccc(C(=O)[*:1])c3nc-2c(C(=O)[*:2])c(N)c1=O; NMeV = CN[C@H](C(=O)O)C(C)C; Sar = CNCC(=O)O
# Legend:
# [1] = tested on: eyeblink/nictitating membrane conditioned responses (CRs); infusion into dorsal anterior IN; assay: Eyeblink conditioning after drug infusion into the interpositus nucleus (IN); assay type: in vivo, New Zealand White male rabbits (Oryctolagus cuniculus)
# Procedure: Rabbits underwent eyeblink training 30 min. after infusion of 1 ng of actinomycin D (ActD) or artificial cerebrospinal fluid (ACSF) into the dorsal anterior IN ipsilateral to the trained eye. Rabbits were trained with 10 paired tone-air trials per day to insure that ActD could act during learning (see Methods). […] Most animals in the experimental group reached criterion after 5 days of additional training without drug infusion.
# New Zealand White male rabbits (Oryctolagus cuniculus), weighing between 2 and 3 kg were individually housed at the University of Southern California Hedco Neuroscience Building vivariunm with a 12-hr light and dark cycle. The experiment was conducted during the light phase of the cycle. Rabbits had ad lib access to food and water.
# (§1) Stainless steel guide cannulas (25 ga) were implanted in the head of the animals with the tip fixed at 1.5 to 2.0 mm dorsal to the IN ipsilateral to the eye to be trained (left) (stereotaxic coordinates from lambda: 0.8 mm anterior, 5.2 mm lateral, and 14.0 mm ventral). Each guide cannula was filled with an inner stainless steel stylet designed to keep the guide cannula patent. Animals were given 5 days to recover from surgery. At infusion the stylet was removed and an inner cannula (31 ga) was inserted to the target locus. Delivery of fluids through the inner cannula was accomplished by a 10 μl Hamilton syringe driven by a syringe pump. Fluids were delivered to the target area at a rate of 0.38 μl per min for 2.6 min. For the experimental group, 1 ng of ActD (in 1 μl of vehicle) was infused daily 30 min prior to the start of each training session for 5 days (n=7). […] The animals were given 2 days rest and then trained for 5 more days without drug infusion. At training day 11, the experimental group was treated with 1 μg muscimol which is known to reversibly inactivate the IN (Krupa and Thompson, 1997). For the control group, 1 μl of ACSF (vehicle) was infused into the IN for 5 days (n=5). At day 6, control animals were infused with 1 ng of ActD 30 min prior to training. On training day 7, 1 μg of muscimol was infused.
# For the infusion experiments, all animals were subjected to eye-blink conditioning under the delay paradigm. The rabbits were allowed one day (1 hour) of habituation to the restrainer and the behavioral recording chamber. On the following day, paired tone-airpuff training began. For each day, the training session began 30 min post drug infusion and we gave only 10 trials/day (instead of the standard 100 trials per day, see below) in order to maximize the possibility that ActD was acting on the learning process before the long term memory had been well established. The tone CS was a 350 ms, 1000 Hz., 85 dB tone and the airpuff US was a 100 ms puff of air (3 psi at the source) delivered to the rabbit's cornea, the CS and US coterminating. The mean intertrial interval (ITI) was 60±10 sec. Nictitating membrane (NNI) conditioned responses (CRs) were measured using a minitorque potentiometer attached to a small loop of monofilament nylon thread on the NM of the rabbit's left, eye. Output of the potentiometer was digitized and recorded by computer. A conditioned response was defined as any NM extension response greater than 0.5 mm that occurred after tone onset but before airpuff onset. The intra- and intertrial timing, stimulus presentations, data collection and analysis were performed by a PC with a program written in Forth and machine language (Lavond and Steinmetz, 1989b).
# [2] = tested on: IN tissue; assay: Pilot dose studies of ActD infusion into the IN (tissue damage); assay type: in vivo, New Zealand White male rabbits (Oryctolagus cuniculus); details: e.g. 5 ng, infused into IN
# Excerpt: as §1, with “For the experimental group, 1 ng of ActD (in 1 μl of vehicle) was infused daily 30 min prior to the start of each training session for 5 days (n=7).” left out
# [3] = tested on: eyeblink conditioning; details: infusion into the IN, rabbit (Bracha and Bloedel, 1996); cited from earlier work
structure (smiles),measurement,setting,value
NCc1cc(=O)[nH]o1 [muscimol],"Expression of CRs, experimental group day 11","[1]; 1 μg infused into IN at day 11, experimental group after retraining",completely abolished the expression of CRs
same,"Expression of CRs, control group day 7","[1]; 1 μg infused into IN on day 7, conditioned control animals",completely abolished the CRs
"Cc1c2oc3c(C)ccc(C(=O)N[C@@H]4C(=O)N[C@H](C(C)C)C(=O)N5CCC[C@H]5C(=O)N(C)CC(=O)N(C)[C@@H](C(C)C)C(=O)O[C@@H]4C)c3nc-2c(C(=O)N[C@@H]2C(=O)N[C@H](C(C)C)C(=O)N3CCC[C@H]3C(=O)N(C)CC(=O)N(C)[C@@H](C(C)C)C(=O)O[C@@H]2C)c(N)c1=O [ActD, actinomycin D] (I: T[dV]P[Sar][NMeV] / II: T[dV]P[Sar][NMeV]; ester I:1-I:C, II:1-II:C; linker I:N-II:N via Actinocin(9to1))",Acquisition of conditioned responses (CRs) during 5 days of training,"[1]; 1 ng infused into IN daily 30 min before training, 5 days, 10 paired CS-US trials per day, n=7, vs ACSF",low levels of CRs; also recorded: completely prevents learning; also recorded: inhibited eyeblink conditioning
same,Expression of already acquired CRs,[1]; 1 ng infused into IN on day 6 in control animals conditioned under ACSF (n=5),did not prevent expression of acquired CRs; also recorded: no effect on the performance of CRs
same,CRs on training without drug after ActD treatment (reversibility),"[1]; experimental group, 2 days rest, then training days 6-10 without drug infusion",gradual increase of CRs
same,Tissue damage at higher doses,[2],caused permanent damage to the tissue
COc1ccc(C[C@H]2NC[C@H](O)[C@H]2OC(C)=O)cc1 [anisomycin],Effect on eyeblink conditioning,[3],interfered with conditioning
